IC50 data for one substance are collected here from patent EP1500662A2, “Stabilizing peptides” (CORNELL RESEARCH FOUNDATION, INC., priority 2003, dated 2005).

Holding throughout (type): cell-based
In assay [1] the test system is HIV-1 Case C 7/86. As for the experimental part:
(§1) PBMC Infectivity Assay. PBMC were isolated from healthy blood donors by Ficoll-Hypaque centrifugation and then stimulated for 2-3 days with phytohemagglutinin (5 µg/ml) and interleukin-2 (100 U/ml). The inhibition assay was performed essentially as described previously (Trkola, A., T. Ketas, V. N. KewalRamani, F. Endorf, J. M. Binley, H. Katinger, J. Robinson, D. R. Littman, and J. P. Moore. 1998. Neutralization sensitivity of human immunodeficiency virus type 1 primary isolates to antibodies and CD4-based reagents is independent of co-receptor usage. J. Virol. 72:1876-1885; Trkola, A., W. A. Paxton, S. P. Monard, J. A. Hoxie, M. A. Siani, D. A. Thompson, L. Wu, C. R. Mackay, R. Horuk, and J. P. Moore. 1998. Genetic subtype-independent inhibition of human immunodeficiency virus type 1 replication by CC and CXC chemokines. J. Virol. 72:396-404).
(§2) Briefly, the virus inoculum was adjusted to 400-1,000 TCID50/ml in assay medium (RPMI 1640, 10% FCS, 100 U of interleukin-2 per ml, glutamine, and peptides), and 50 µl aliquots were incubated with serial dilutions of the peptide inhibitors (50 µl) for 1 h at 37 °C. […] RBMC (4 x 10^5 in 100 µl of medium) were then added. The final concentration of virus in the cultures was 20-50 TCID50/well, corresponding to 100-250 TCID50/ml. […] The viral inocula in 50% tissue culture infectious doses (TCID50) were 400-1000/ml.

Assay [2] concerns HIV-1 JFRL. The protocol: as §1, §2
Assay [3] relates to HIV-1 CM.235. As for the experimental part:
as §1, §2

The subject of assay [4] is HIV-1 NL4-3. The protocol:
as §1, §2

Assay [5] relates to HIV-1 DJ258. The protocol: as §1, §2
In assay [6] the test system is HIV-1 94ZW103. As for the experimental part: as §1, §2
Assay [7] has as its system HIV-1 UG270. As for the experimental part:
as §1, §2

As to Enfuvirtide, the concentration for half-maximal inhibition (IC50) (commonly the concentration at which inhibition is half-maximal) in assay [1] was 4 nM; in assay [2] it was 9 nM; in assay [3] it was 79 nM; in assay [4] it was 35 nM; in assay [5] it was 83 nM; in assay [6] it was 13 nM. This substance also came in with an IC50 in assay [7] of 257 nM.
